Assay: Effect of phosphate and borate buffers on chemical stability (% remaining, impurity profile), osmolality, pH and appearance of 25HC3S 30 mg/mL in 250 mg/mL HPBCD at 80°C and 60°C
Format: physicochemical
Settings: 80° C.
Description: A total of six 25HC3S formulations at 30 mg/mL in 250 mg/mL of 2-hydroxypropyl beta cyclodextrin (HPBCD) containing 10, 20, 50 and 100 mM phosphate buffers at pH 7.5 to 8.1 and 10 and 50 mM borate buffers at pH 9.4 were prepared for the stability study. The chemical stability (measured as % remaining of 25HC3S) and physical stability (osmolality, pH and appearance) of the formulations were monitored under accelerated conditions for up to 7 days at 80° C. and up to 29 days at 60° C.
Two stock solutions of phosphate buffer at 100 and 200 mM at pH 7.4 and 7.3, respectively and one borate buffer at 100 mM at pH 9.3 were prepared (Tables 22A and 22B) and used for 250 mg/mL HPBCD vehicles preparation (Table 23).
Approximately 1200 mg each of 25HC3S was weighed into 40 mL volumetric flasks and diluted to volume with the six HPBCD vehicles containing 10-100 mM phosphate buffers or 10 and 50 mM borate buffers, respectively (Table 24). The final concentration of 25HC3S was 30 mg/mL (wt/volume, without adjusting for API purity). Aliquots of 2 mL of each formulation were filled into 2 mL glass vials, stoppered and sealed for stability sample set-up at 60° C. and 80° C. to study the effect of phosphate buffer (pH 7.5-8.1) and borate buffer (pH 9.4) at various buffer concentrations on the stability of the HPBCD formulations (Table 26).
A 0.5 mL of sample solution was transferred to a 25 mL volumetric flask and QS'ed with methanol/water=95/5 for 25HC3S concentration determination by HPLC. The % remaining of 25HC3S was calculated as follows: […]

## C[C@H](CCCC(C)(C)O)[C@H]1CC[C@H]2[C@@H]3CC=C4C[C@@H](OS(=O)(=O)[O-])CC[C@]4(C)[C@H]3CC[C@]12C.[Na+] [25HC3S, 5-cholesten-3, 25-diol, 3-sulfate]
Day 0, Phosphate 10 mM
  % Peak Area Major Thermal Degradant at RRT = 2.64: 0.3 % Peak Area
Day 0, Phosphate 20 mM
  % Peak Area 25-Hydroxy Cholesterol at RRT = 3.67: 0.0 % Peak Area
  % Peak Area 25HC3S: 99.7 % Peak Area
  % Peak Area Major Thermal Degradant at RRT = 2.64: 0.3 % Peak Area
Day 0, Phosphate 50 mM
  % Peak Area 25-Hydroxy Cholesterol at RRT = 3.67: 0.0 % Peak Area
  % Peak Area 25HC3S: 99.7 % Peak Area
  % Peak Area Major Thermal Degradant at RRT = 2.64: 0.3 % Peak Area
Day 0, Phosphate 100 mM
  % Peak Area 25-Hydroxy Cholesterol at RRT = 3.67: 0.0 % Peak Area
  % Peak Area 25HC3S: 99.8 % Peak Area
  % Peak Area Major Thermal Degradant at RRT = 2.64: 0.3 % Peak Area
Day 1, Borate 10 mM
  % Peak Area 25-Hydroxy Cholesterol at RRT = 3.67: 1.0 % Peak Area
  % Peak Area 25HC3S: 98.8 % Peak Area
  % Peak Area Major Thermal Degradant at RRT = 2.64: 0.3 % Peak Area
Day 1, Borate 50 mM
  % Peak Area 25-Hydroxy Cholesterol at RRT = 3.67: 1.0 % Peak Area
  % Peak Area 25HC3S: 98.7 % Peak Area
  % Peak Area Major Thermal Degradant at RRT = 2.64: 0.3 % Peak Area
Day 1, Phosphate 10 mM
  % Peak Area 25-Hydroxy Cholesterol at RRT = 3.67: 0.9 % Peak Area
  % Peak Area 25HC3S: 98.9 % Peak Area
  % Peak Area Major Thermal Degradant at RRT = 2.64: 0.3 % Peak Area
Day 1, Phosphate 20 mM
  % Peak Area 25-Hydroxy Cholesterol at RRT = 3.67: 1.0 % Peak Area
  % Peak Area 25HC3S: 98.8 % Peak Area
  % Peak Area Major Thermal Degradant at RRT = 2.64: 0.3 % Peak Area
Day 1, Phosphate 50 mM
  % Peak Area 25-Hydroxy Cholesterol at RRT = 3.67: 1.0 % Peak Area
  % Peak Area 25HC3S: 98.9 % Peak Area
  % Peak Area Major Thermal Degradant at RRT = 2.64: 0.2 % Peak Area
Day 1, Phosphate 100 mM
  % Peak Area 25-Hydroxy Cholesterol at RRT = 3.67: 0.9 % Peak Area
  % Peak Area 25HC3S: 98.8 % Peak Area
  % Peak Area Major Thermal Degradant at RRT = 2.64: 0.3 % Peak Area
Day 2, Borate 10 mM
  % Peak Area 25-Hydroxy Cholesterol at RRT = 3.67: 1.9 % Peak Area
  % Peak Area 25HC3S: 97.9 % Peak Area
  % Peak Area Major Thermal Degradant at RRT = 2.64: 0.3 % Peak Area
Day 2, Borate 50 mM
  % Peak Area 25-Hydroxy Cholesterol at RRT = 3.67: 2.0 % Peak Area
  % Peak Area 25HC3S: 97.8 % Peak Area
  % Peak Area Major Thermal Degradant at RRT = 2.64: 0.3 % Peak Area
Day 2, Phosphate 10 mM
  % Peak Area 25-Hydroxy Cholesterol at RRT = 3.67: 1.9 % Peak Area
  % Peak Area 25HC3S: 97.9 % Peak Area
  % Peak Area Major Thermal Degradant at RRT = 2.64: 0.3 % Peak Area
Day 2, Phosphate 20 mM
  % Peak Area 25-Hydroxy Cholesterol at RRT = 3.67: 1.9 % Peak Area
  % Peak Area 25HC3S: 98.0 % Peak Area
  % Peak Area Major Thermal Degradant at RRT = 2.64: 0.2 % Peak Area
Day 2, Phosphate 50 mM
  % Peak Area 25-Hydroxy Cholesterol at RRT = 3.67: 2.0 % Peak Area
  % Peak Area 25HC3S: 97.8 % Peak Area
  % Peak Area Major Thermal Degradant at RRT = 2.64: 0.3 % Peak Area
Day 2, Phosphate 100 mM
  % Peak Area 25-Hydroxy Cholesterol at RRT = 3.67: 2.0 % Peak Area
  % Peak Area 25HC3S: 97.8 % Peak Area
  % Peak Area Major Thermal Degradant at RRT = 2.64: 0.3 % Peak Area
Day 3, Borate 10 mM
  % Peak Area 25-Hydroxy Cholesterol at RRT = 3.67: 2.8 % Peak Area
  % Peak Area 25HC3S: 97.0 % Peak Area
  % Peak Area Major Thermal Degradant at RRT = 2.64: 0.3 % Peak Area
Day 3, Borate 50 mM
  % Peak Area 25-Hydroxy Cholesterol at RRT = 3.67: 3.0 % Peak Area
  % Peak Area 25HC3S: 96.9 % Peak Area
  % Peak Area Major Thermal Degradant at RRT = 2.64: 0.2 % Peak Area
Day 3, Phosphate 10 mM
  % Peak Area 25-Hydroxy Cholesterol at RRT = 3.67: 4.3 % Peak Area
  % Peak Area 25HC3S: 95.6 % Peak Area
  % Peak Area Major Thermal Degradant at RRT = 2.64: 0.2 % Peak Area
Day 3, Phosphate 20 mM
  % Peak Area 25-Hydroxy Cholesterol at RRT = 3.67: 3.5 % Peak Area
  % Peak Area 25HC3S: 96.4 % Peak Area
  % Peak Area Major Thermal Degradant at RRT = 2.64: 0.2 % Peak Area
Day 3, Phosphate 50 mM
  % Peak Area 25-Hydroxy Cholesterol at RRT = 3.67: 3.3 % Peak Area
  % Peak Area 25HC3S: 96.5 % Peak Area
  % Peak Area Major Thermal Degradant at RRT = 2.64: 0.3 % Peak Area
Day 3, Phosphate 100 mM
  % Peak Area 25-Hydroxy Cholesterol at RRT = 3.67: 3.2 % Peak Area
  % Peak Area 25HC3S: 96.6 % Peak Area
  % Peak Area Major Thermal Degradant at RRT = 2.64: 0.3 % Peak Area
Day 7, Borate 10 mM
  % Peak Area 25-Hydroxy Cholesterol at RRT = 3.67: 7.3 % Peak Area
  % Peak Area 25HC3S: 92.5 % Peak Area
  % Peak Area Major Thermal Degradant at RRT = 2.64: 0.2 % Peak Area
Day 7, Borate 50 mM
  % Peak Area 25-Hydroxy Cholesterol at RRT = 3.67: 6.2 % Peak Area
  % Peak Area 25HC3S: 93.6 % Peak Area
  % Peak Area Major Thermal Degradant at RRT = 2.64: 0.3 % Peak Area
Day 7, Phosphate 10 mM
  % Peak Area 25-Hydroxy Cholesterol at RRT = 3.67: 27.1 % Peak Area
  % Peak Area 25HC3S: 72.3 % Peak Area
  % Peak Area Major Thermal Degradant at RRT = 2.64: 0.7 % Peak Area
Day 7, Phosphate 20 mM
  % Peak Area 25-Hydroxy Cholesterol at RRT = 3.67: 19.8 % Peak Area
  % Peak Area 25HC3S: 79.9 % Peak Area
  % Peak Area Major Thermal Degradant at RRT = 2.64: 0.2 % Peak Area
Day 7, Phosphate 50 mM
  % Peak Area 25-Hydroxy Cholesterol at RRT = 3.67: 11.6 % Peak Area
  % Peak Area 25HC3S: 88.2 % Peak Area
  % Peak Area Major Thermal Degradant at RRT = 2.64: 0.2 % Peak Area
Day 7, Phosphate 100 mM
  % Peak Area 25-Hydroxy Cholesterol at RRT = 3.67: 9.8 % Peak Area
  % Peak Area 25HC3S: 90.0 % Peak Area
  % Peak Area Major Thermal Degradant at RRT = 2.64: 0.2 % Peak Area
